Data on 30 compounds can be found in patent US20190276389A1, “SYNTHESIS OF ARYL CYCLOHEXANE ESTER DERIVATIVES USEFUL AS SENSATES IN CONSUMER PRODUCTS” (The Procter & Gamble Company, priority 2015, published 2019).

The target in experiment [1] is human TRPM8. Briefly: TRPM8 Protocol-FLIPR Assay (intracellular Ca2+ in HEK-293 cells stably transfected with human TRPM8). The note with it: HEK-293 cells stably transfected with human TRPM8, Fluo-4 AM, read-out: TRPM8 EC 50 Value. Type of experiment: cell-based. Here is the method: (§1) Trypsin was inactivated by addition of 8 ml growth medium. Cells were transferred to a 50 ml tube and centrifuged at 850 rpm for 3 minutes to remove medium. After centrifugation, a pellet of cells was formed in the bottom of the tube separating them from the supernatant solution. […] Fluo-4 AM is a fluorescent dye used for quantifying cellular Ca^2+ concentrations in the 100 nM to 1 microM range. At the end of 30 minutes, 45 ml of assay buffer (1×BSS (Hank's Balanced Salt Solution), 20 mM HEPES (4-(2-Hydroxyethyl)-1-piperazineethanesulfonic acid)) was added to wash cells and the resulting mixture was then centrifuged at 850 rpm for 3 minutes to remove excess buffer and Fluo-4 AM calcium indicator.
(§2) The pelleted cells were re-suspended in 10 ml assay buffer and 90 μl aliquots (˜50,000 cells) per well delivered to a 96-well assay plate containing 10 μl of test compounds (1 mM in assay buffer, final concentration 100 μM) or buffer control and incubated at room temperature for 30 minutes. After 30 minutes, a plate was placed into a fluorometric imaging plate reader (FLIPR384 from Molecular Devices, Sunnyvale, Calif.) and basal fluorescence recorded (excitation wave length 488 nm and emission wave length 510 nm). Then 20 μl of […] of TRPM8 agonist WS5 coolant in the assay buffer was added and fluorescence recorded. For determining the direct effect of test compounds on TRPM8, fluorescence was measured immediately after addition of each compound (TABLE 1).

Experiment [2] has as its target human TRPM8 (UniProt Q8R4D5). The description is as above. Format: cell-based. The note with it: HEK-293 cells stably transfected with human TRPM8, Fluo-4 AM. The procedure: as §1, §2
For experiment [3] the following is noted: concentration where the cooling effect could be clearly recognized; cited from earlier work.
Experiment [4] in a line: Sensory evaluation of cooling intensity after brushing with dentifrice. The conditions noted are these: avg 7 panelists, dentifrice with 0.001% (10 ppm) coolant. Type of experiment: in vivo. Here is the method: Dentifrices were prepared using conventional methods, such as the protocols described in U.S. Pat. No. 8,747,814, which contained no coolant (SAMPLE A—Crest Cavity Protection) or having a coolant from TABLE 1 (SAMPLE B), in a flavor (wintergreen) at 10 parts per million (ppm).
Sensory evaluation studies of coolant activity were conducted using a methodology patterned after the techniques described in M. C. Meilgaard, et al., Sensory Evaluation Techniques, 4th Ed. (2007). Seven panelists brushed with a dentifrice from TABLE 2, having no coolant (SAMPLE A) or having a coolant from TABLE 1 (SAMPLE B), for two minutes, in a flavor (wintergreen) at 10 parts per million (ppm). After brush expectoration, panelists then rinsed their mouth with 15 ml of an aqueous rinse and expectorated.

Turning to `CC(C)[C@@H]1CC[C@@H](C)C[C@H]1C(=O)OC[C@@H](OC(=O)CNC(=O)OC(C)(C)C)c1ccccc1` [#20], at human TRPM8 [1], the EC50 worked out at 4470 nM.

As for `CC(C)[C@@H]1CC[C@@H](C)C[C@H]1C(=O)OC[C@@H](NC(=O)CNC(=O)OC(C)(C)C)c1ccccc1` [#3], the EC50 at human TRPM8 [1] stood at 23200 nM.

As to `CC(C)[C@@H]1CC[C@@H](C)C[C@H]1OC(=O)C[C@@H](NC(=O)OC(C)(C)C)c1ccccc1` [#6], at human TRPM8 [2], the “TRPM8 EC 50 Value” is reported as “Too high to measure”.

For `CC(C)[C@@H]1CC[C@@H](C)C[C@H]1OC(=O)[C@@H](NC(=O)CN)c1ccccc1` [#23], the EC50 on human TRPM8 [1] came to 34100 nM.

In the case of `CC(C)[C@@H]1CC[C@@H](C)C[C@H]1C(=O)OC[C@@H](O)c1ccccc1` [#12], the EC50 on human TRPM8 [1] came to 590 nM.

On to `CC(C)[C@@H]1CC[C@@H](C)C[C@H]1C(=O)OC[C@@H](OC(=O)CN)c1ccccc1` [#9], for which the EC50 at human TRPM8 [1] turned out to be 13 nM.

Take `CC(C)[C@@H]1CC[C@@H](C)C[C@H]1COC(=O)C(NC(=O)CN)c1ccccc1` (some centres unmarked) [#27]: at human TRPM8 [1], the EC50 was determined as 145000 nM.

`CC(C)[C@@H]1CC[C@@H](C)C[C@H]1C(=O)OC[C@@H](NC(=O)[C@H](C)N)c1ccccc1` [#11]: the EC50 on human TRPM8 [1] worked out at 343 nM.

Turning to `CC(C)[C@@H]1CC[C@@H](C)CC1OC(=O)c1ccccc1NC(=O)CN` (some centres unmarked) [#34], the EC50 on human TRPM8 [1] stood at 19000 nM.

`CC(C)[C@H]1CC[C@H](C)C[C@@H]1OC(=O)C[C@@H](NC(=O)CN)c1ccccc1` [#13]: at human TRPM8 [1], the EC50 was found to be 882 nM.

In the case of `CC(C)[C@@H]1CC[C@@H](C)C[C@H]1C(=O)OC[C@H](NC(=O)CN)c1ccccc1` [#17], the EC50 on human TRPM8 [1] stood at 2260 nM.

Take `CC(C)[C@@H]1CC[C@@H](C)C[C@H]1O` [L-menthol]: the cooling threshold entry in experiment [3] is listed as “about 800 ppb”.

In the case of `CC(C)[C@@H]1CC[C@@H](C)C[C@H]1OC(=O)[C@@H](NC(=O)[C@H](C)N)c1ccccc1` [#22], the EC50 on human TRPM8 [1] came to 32800 nM.

Turning to `CC(C)[C@@H]1CC[C@@H](C)C[C@H]1C(=O)OC[C@@H](NC(=O)[C@@H](C)N)c1ccccc1.Cl` [#1], the EC50 at human TRPM8 [1] was found to be 8.08 nM. Besides, the “Cooling Rating (0-90) of Dentifrice” value was 33.57 in experiment [4] (Time 0 min, wintergreen flavor, 0 = no cooling, 90 = cold as ice); 32.71 in experiment [4] (Time 15 min); 26.43 in experiment [4] (Time 30 min); 35.71 in experiment [4] (Time 60 min); 40.00 in experiment [4] (Time 120 min); 36.43 in experiment [4] (Time 180 min). The “Cooling Rating (0-90) of Dentifrice” value is 34.29 in experiment [4] (Time 240 min); 30.71 in experiment [4] (Time 300 min); 30.71 in experiment [4] (Time 360 min); 23.57 in experiment [4] (Time 420 min); 20.71 in experiment [4] (Time 480 min).

Take `CC(C)[C@@H]1CC[C@@H](C)C[C@H]1C(=O)OC[C@@H](NC(=O)CN)c1ccccc1` [#4]: the EC50 on human TRPM8 [1] came out at 64 nM.

As for `CC(C)[C@@H]1CC[C@@H](C)C[C@H]1OC(=O)CC(NCCN)c1ccccc1` (some centres unmarked) [#15], on human TRPM8 [1], the EC50 amounted to 1960 nM.

With `CC(C)[C@@H]1CC[C@@H](C)C[C@@H]1OC(=O)C[C@@H](NC(=O)CN)c1ccccc1` [#18], the EC50 at human TRPM8 [1] came to 2950 nM.

Consider `CC(C)[C@@H]1CC[C@@H](C)C[C@H]1OC(=O)C[C@@H](NC(=O)[C@@H](C)N)c1ccccc1` [#10], for which the EC50 on human TRPM8 [1] was 36.8 nM.

Consider `CC(C)[C@@H]1CC[C@@H](C)C[C@H]1OC(=O)C(Cc1ccccc1)NC(=O)CN` (some centres unmarked) [#19], for which, on human TRPM8 [1], the EC50 amounted to 4280 nM.

`CC(C)[C@@H]1CC[C@@H](C)C[C@H]1OC(=O)C[C@@H](NC(=O)[C@H](C)N)c1ccccc1` [#14]: the EC50 on human TRPM8 [1] was found to be 914 nM.

For `CC(C)[C@@H]1CC[C@@H](C)C[C@H]1OC(=O)C[C@@H](NC(=O)CNC(=O)OC(C)(C)C)c1ccccc1` [#8], the “TRPM8 EC 50 Value” on human TRPM8 [2] was “Too high to measure”.

For the compound `CC(C)[C@@H]1CC[C@@H](C)C[C@H]1OC(=O)CCCCCN` [#25], on human TRPM8 [1], the EC50 amounted to 9500 nM.

On to `CC1CCC(C(C)C)C(OC(=O)CC(N)c2ccccc2)C1` (centres unmarked) [#7], for which, at human TRPM8 [1], the EC50 was 8000 nM.

With `CC(C)[C@@H]1CC[C@@H](C)C[C@H]1C(=O)OC[C@@H](OC(=O)[C@@H]1C[C@H](C)CC[C@H]1C(C)C)c1ccccc1` [#26], at human TRPM8 [1], the EC50 worked out at 139000 nM.

With `CC(C)[C@@H]1CC[C@@H](C)C[C@H]1OC(=O)CC(NCc1ccccn1)c1ccccc1` (some centres unmarked) [#16], the EC50 on human TRPM8 [1] worked out at 2070 nM.

For `CC(C)[C@@H]1CC[C@@H](C)C[C@@H]1O` [d-neomenthol], in experiment [3], the cooling threshold result is given as “about 25,000 ppb”.

With `CC(C)[C@H]1CC[C@@H](C)C[C@@H]1OC(=O)C[C@@H](NC(=O)CN)c1ccccc1` [#21], the EC50 at human TRPM8 [1] was 4960 nM.

Consider `CC(C)[C@@H]1CC[C@@H](C)C[C@@H]1O` [Sample 1-neomenthol, 1-neomenthol], for which the cooling threshold entry in experiment [3] was “about 3,000 ppb”.

Consider `CC(C)[C@@H]1CC[C@@H](C)C[C@H]1OC(=O)C[C@@H](NC(=O)CN)c1ccccc1` [#2], for which the EC50 on human TRPM8 [1] came out at 62 nM.

For the compound `CC1CCC(C(C)C)C(OC(=O)C(N)c2ccccc2)C1` (centres unmarked) [#5], the EC50 on human TRPM8 [1] was 60200 nM.
